We go through 1 compound from article PMC10715162 (Microbiology Spectrum, 2023).

SMILES strings stand for the structures.

The target in this assay is T1, F-ATP synthase subunit γ (in MsF1-αβγH65W) (Mycolicibacterium smegmatis, UniProt A0R201, H65W).
T1 construct: gene atpG; recombinant MsF1-αβγH65W complex; with F-ATP synthase subunits α and β
Put plainly: tryptophan fluorescence quenching titration. Format: binding.

T1 sequence (A0R201 2-307 H65W): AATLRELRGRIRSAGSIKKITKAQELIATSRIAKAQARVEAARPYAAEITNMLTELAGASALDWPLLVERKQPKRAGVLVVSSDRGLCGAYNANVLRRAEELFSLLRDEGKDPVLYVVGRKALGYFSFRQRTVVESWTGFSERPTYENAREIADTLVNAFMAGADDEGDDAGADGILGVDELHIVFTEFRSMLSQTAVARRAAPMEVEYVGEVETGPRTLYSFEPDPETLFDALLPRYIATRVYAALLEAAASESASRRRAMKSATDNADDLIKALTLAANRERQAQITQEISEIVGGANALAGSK
T1 sequence (A0R202 2-548 partner): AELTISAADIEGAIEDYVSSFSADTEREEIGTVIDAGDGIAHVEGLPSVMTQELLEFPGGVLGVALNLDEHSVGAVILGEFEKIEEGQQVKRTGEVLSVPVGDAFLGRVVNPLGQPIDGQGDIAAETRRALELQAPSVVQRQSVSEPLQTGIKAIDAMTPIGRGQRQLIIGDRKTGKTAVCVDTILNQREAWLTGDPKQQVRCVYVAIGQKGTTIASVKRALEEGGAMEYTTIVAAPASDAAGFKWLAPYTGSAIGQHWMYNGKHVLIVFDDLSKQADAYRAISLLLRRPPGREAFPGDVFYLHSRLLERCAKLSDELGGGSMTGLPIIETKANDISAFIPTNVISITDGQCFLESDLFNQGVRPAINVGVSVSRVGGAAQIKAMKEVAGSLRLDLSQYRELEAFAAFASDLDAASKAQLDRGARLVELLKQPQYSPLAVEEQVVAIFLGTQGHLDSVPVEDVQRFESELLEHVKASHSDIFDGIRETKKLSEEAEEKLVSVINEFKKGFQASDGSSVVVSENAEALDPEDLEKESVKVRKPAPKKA
T1 sequence (A0R200 2-475 partner): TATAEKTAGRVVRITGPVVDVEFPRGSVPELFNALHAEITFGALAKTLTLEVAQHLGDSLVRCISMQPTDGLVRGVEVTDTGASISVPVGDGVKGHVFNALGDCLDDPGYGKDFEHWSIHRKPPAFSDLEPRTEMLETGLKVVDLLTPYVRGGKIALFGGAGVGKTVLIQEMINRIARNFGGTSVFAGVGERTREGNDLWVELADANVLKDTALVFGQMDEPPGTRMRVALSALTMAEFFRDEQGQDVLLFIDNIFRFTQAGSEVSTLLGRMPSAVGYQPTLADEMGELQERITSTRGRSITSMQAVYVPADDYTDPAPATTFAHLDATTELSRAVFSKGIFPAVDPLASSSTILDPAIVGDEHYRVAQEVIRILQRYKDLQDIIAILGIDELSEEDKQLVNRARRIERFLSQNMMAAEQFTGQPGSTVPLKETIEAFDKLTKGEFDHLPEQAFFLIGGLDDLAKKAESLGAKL

Take `CCNc1cc(C)nc(Nc2ccc3nc(-c4ccc(Cl)cc4)[nH]c3c2)n1` [GaMF1.39]: binding was characterised by a dissociation constant (Kd) of 700 ± 90 nM.

The term Kd denotes the equilibrium constant for the complex coming apart. The low end stands for tighter binding, the high end for weaker binding.
